Experimental data taken from ChEMBL document CHEMBL1201862, “PubChem BioAssay data set” (2004).
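Where inhibition never reached the appropriate level, the endpoint shown equals the highest concentration tested. Otherwise, values were interpolated linearly from a five-concentration, 48-hour dose response in 96-well plates. The concentration for 50% growth inhibition is given as GI50.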 The source made the active and inactive calls. Cut-off read from the data, not from the text of the source: active = GI50 up to about 1.1 µM and inactive = higher.

What was measured:
Test in all cases: NCI-60 cell line screen, 48 h
Malme-3M = system: Malme-3M
NCI-H226 = system: NCI-H226
OVCAR-3 = system: OVCAR-3
TK-10 = system: TK-10
SW-620 = system: SW-620
IGROV-1 = system: IGROV-1
HT-29 = system: HT-29
SK-MEL-5 = system: SK-MEL-5
NCI-H522 = system: NCI-H522
SK-OV-3 = system: SK-OV-3
HCT-15 = system: HCT-15
NCI-H460 = system: NCI-H460
SF-539 = system: SF-539
T47D = system: T47D
OVCAR-8 = system: OVCAR-8
HCT-116 = system: HCT-116
MCF7 = system: MCF7
M14 = system: M14
XF498 = system: XF498
NCI/ADR-RES = system: NCI/ADR-RES
MDA-MB-231 = system: MDA-MB-231
DMS-114 = system: DMS-114
SNB-19 = system: SNB-19
HOP-18 = system: HOP-18
HOP-92 = system: HOP-92
LXFL 529 = system: LXFL 529
CCRF-CEM = system: CCRF-CEM
UACC-62 = system: UACC-62
786-0 = system: 786-0
NCI-H23 = system: NCI-H23
EKVX = system: EKVX
HL-60 = system: HL-60
SK-MEL-28 = system: SK-MEL-28
KM12 = system: KM12
DLD-1 = system: DLD-1
UO-31 = system: UO-31
COLO 205 = system: COLO 205
A498 = system: A498
HOP-62 = system: HOP-62
ACHN = system: ACHN
A549 = system: A549
U-251 = system: U-251
MDA-N = system: MDA-N
DMS-273 = system: DMS-273
OVCAR-4 = system: OVCAR-4
OVCAR-5 = system: OVCAR-5
Hs-578T = system: Hs-578T
LOX IMVI = system: LOX IMVI
MDA-MB-435 = system: MDA-MB-435
HCC 2998 = system: HCC 2998
UACC-257 = system: UACC-257
BT-549 = system: BT-549
SK-MEL-2 = system: SK-MEL-2
KM-20L2 = system: KM-20L2
SNB-78 = system: SNB-78
RXF 393 = system: RXF 393
SNB-75 = system: SNB-75
SF-268 = system: SF-268
SF-295 = system: SF-295
MOLT-4 = system: MOLT-4
M19-MEL = system: M19-MEL
DU-145 = system: DU-145
CAKI-1 = system: CAKI-1
SN12C = system: SN12C
PC-3 = system: PC-3

Which results are given for `CCC(=O)OC1CCn2c1nc1c2C(=O)C(C)=C(N2CC2)C1=O` (stereo not given)?
GI50 (Malme-3M): 63 nM (active); GI50 (NCI-H226): 111 nM (active); GI50 (OVCAR-3): 67 nM (active); GI50 (TK-10): 38.3 nM (active); GI50 (SW-620): 48.8 nM (active); GI50 (IGROV-1): 482 nM (active); GI50 (HT-29): 183 nM (active); GI50 (SK-MEL-5): 29.4 nM (active); GI50 (NCI-H522): 36.1 nM (active); GI50 (SK-OV-3): 103 nM (active); GI50 (HCT-15): 27.5 nM; GI50 (NCI-H460): 45 nM (active); GI50 (SF-539): 143 nM (active); GI50 (T47D): 1600 nM (inactive); GI50 (OVCAR-8): 67.8 nM (active); GI50 (HCT-116): 93.5 nM (active); GI50 (MCF7): 6.37 nM (active); GI50 (M14): 69.8 nM (active); GI50 (XF498): 34.5 nM (active); GI50 (NCI/ADR-RES): 48 nM (active); GI50 (MDA-MB-231): 1420 nM (inactive); GI50 (DMS-114): 120 nM (active); GI50 (SNB-19): 98.9 nM (active); GI50 (HOP-18): 43.9 nM (active); GI50 (HOP-92): 1530 nM (inactive); GI50 (LXFL 529): 93.3 nM (active); GI50 (CCRF-CEM): 590 nM (active); GI50 (UACC-62): 60.7 nM (active); GI50 (786-0): 84.1 nM (active); GI50 (NCI-H23): < 42.3 nM (active); GI50 (EKVX): 224 nM (active); GI50 (HL-60): 350 nM (active); GI50 (SK-MEL-28): 79.1 nM (active); GI50 (KM12): 93.8 nM (active); GI50 (DLD-1): 105 nM (active); GI50 (UO-31): 69.8 nM (active); GI50 (COLO 205): 199 nM (active); GI50 (A498): 52.6 nM (active); GI50 (HOP-62): 69.7 nM (active); GI50 (ACHN): 89.5 nM (active); GI50 (A549): 115 nM (active); GI50 (U-251): 37.1 nM (active); GI50 (MDA-N): 43 nM (active); GI50 (DMS-273): 45 nM (active); GI50 (OVCAR-4): 126 nM (active); GI50 (OVCAR-5): 90.2 nM (active); GI50 (Hs-578T): 45.5 nM (active); GI50 (LOX IMVI): 77.1 nM (active); GI50 (MDA-MB-435): 25.4 nM (active); GI50 (HCC 2998): 61.5 nM (active); GI50 (UACC-257): 71.1 nM (active); GI50 (BT-549): 54.6 nM (active); GI50 (SK-MEL-2): 64 nM (active); GI50 (KM-20L2): 233 nM (active); GI50 (SNB-78): 462 nM (active); GI50 (RXF 393): 56.5 nM (active); GI50 (SNB-75): 30.1 nM (active); GI50 (SF-268): 75.5 nM (active); GI50 (SF-295): 72.8 nM (active); GI50 (MOLT-4): 3410 nM (inactive); GI50 (M19-MEL): 146 nM (active); GI50 (DU-145): 7.43 nM (active); GI50 (CAKI-1): 50.9 nM (active); GI50 (SN12C): 88.1 nM (active); GI50 (PC-3): 105 nM (active)
